In brackets after ≈: the same amount, converted by molar mass. Read-outs that look alike come from different tables or passages of the source. One block for each compound: values may come before it.
Columns and labels:
[1] = Hydroxyl radical scavenging activity; format: biochemical; settings: ethanolic leaf extract 100-2000 μg/mL; mean ± SEM
Description: (§1) The antioxidant activity of twelve plant extracts was estimated by using various methods, including (2, 2-diphenyl-1-picrylhidrazyl) DPPH free radical scavenging activity, ferrous (Fe^2+) ion chelating agent, ferric (Fe^3+) ion reducing power, nitric oxide (NO^−) scavenging activity, hydroxyl radical scavenging activity, hydrogen peroxide scavenging activity, and total antioxidant activity.

[2] = Ferrous (Fe2+) ion chelating activity; format: biochemical; settings: ethanolic leaf extract 100-2000 μg/mL; mean ± SEM
Description: as §1

[3] = Hydrogen peroxide scavenging activity; format: biochemical; settings: ethanolic leaf extract 100-2000 μg/mL; mean ± SEM
Description: as §1

[4] = DPPH free radical scavenging activity; format: biochemical; settings: ethanolic leaf extract 100-2000 μg/mL; mean ± SEM
Description: as §1

[5] = test system: human red blood cells (HRBC) membrane; test: HRBC membrane stabilization (heat-induced hemolysis); format: cell-based; settings: Erythrocyte, read-out: HRBC membrane stabilization IC50
Protocol: (1) Erythrocyte Suspension. With few modifications, the erythrocyte suspension was prepared using the technique outlined by Pieroni et al.. Healthy human volunteers provided the blood sample, which was centrifuged for 10 minutes at 1500 rpm. The red blood cell (RBC) pallet was washed three times with PBS (pH 7.4) following centrifugation. The buffy coat and supernatant liquid were aspirated out following each wash. The RBCs were resuspended in PBS at a concentration of 20% (v/v). (2) Heat-Induced Hemolysis. The method explained by Gunathilake et al. was used to determine the heat-induced hemolysis with some modifications. […] Then, the mixture was incubated for 20 minutes at 54°C in the water bath with continuous shaking. The mixture was incubated and centrifuged at 2500 rpm for 3 minutes. By using a UV spectrophotometer, the absorbance of supernatant was measured at 540 nm. In the experiment, PBS will be used as blank.

[6] = Nitric oxide (NO) scavenging activity; format: biochemical; settings: ethanolic leaf extract 100-2000 μg/mL; mean ± SEM
Description: as §1

[7] = Ferric (Fe3+) ion reducing power; format: biochemical; settings: ethanolic leaf extract 100-2000 μg/mL; mean ± SEM
Protocol: as §1
The ferric ion-reducing antioxidant power assay of twelve plant extracts was carried out. The activity was confirmed when the color of the solution was changed from yellow to green and Prussian blue based on the reduction property of extracts and standard, which was measured at 700 nm wavelength using a UV spectrophotometer. The absorbance value was increased with the increasing concentration of plant extract (Table 4).

[8] = test system: rats; parameters: method as in PMID 32061742; settings: rats, 25, 50, and 100 mg/kg; ref [7]; cited from earlier work
[9] = Total antioxidant activity (phosphomolybdenum); format: biochemical; settings: ethanolic leaf extract 100-2000 μg/mL; mean ± SEM
Description: as §1

[10] = ethanolic leaf extract 100-2000 μg/mL

- Hydroxyl radical scavenging IC50 [1]: 2.90 ± 0.98 µg/mL
- Ferrous ion chelating IC50 [2]: 2.81 ± 0.82 µg/mL
- H2O2 scavenging IC50 [3]: 2.89 ± 0.32 µg/mL
- DPPH scavenging IC50 [4]: 2.90 ± 0.51 µg/mL
SMILES: Cc1cc(C(C)(C)C)c(O)c(C(C)(C)C)c1 [BHT, Butylated Hydroxyl Toulene]

SMILES: COc1ccc2c(c1)c(CC(=O)O)c(C)n2C(=O)c1ccc(Cl)cc1 [Indomethacin, indomethacin]
- IC50 [5]: 7.14 ± 0.31 µg/mL (≈ 20 µM)

SMILES: CC(=O)Oc1ccccc1C(=O)O [Aspirin, aspirin]
- IC50 [5, 10]: 21.3 ± 0.43 µg/mL (≈ 118 µM)

SMILES: COc1ccc(O)c(C(C)(C)C)c1 [BHA, Butylated Hydroxyl Annisole]
- Nitric oxide scavenging IC50 [6]: 5.58 ± 0.68 µg/mL
- Ferric reducing IC50 [7]: 3.02 ± 0.30 µg/mL

SMILES: O=C(O)COC(=O)Cc1ccccc1Nc1c(Cl)cccc1Cl [Aceclofenac, aceclofenac]
- IC50 [5, 10]: 21.9 ± 2.34 µg/mL (≈ 61.8 µM)

SMILES: C=C1CC[C@@H]2[C@](C)(CO)[C@H](O)CC[C@@]2(C)[C@@H]1C/C=C1/C(=O)OC[C@H]1O [andrographolide]
- Concentration of catalase, superoxide dismutase, and glutathione (antioxidant enzymes) [8]: increase
- Level of articular elastase, TNF-α, IL-6, CXC chemokine ligand 2, and myeloperoxidase [8]: decrease

SMILES: Cc1ccc(-c2ncc(Cl)cc2-c2ccc(S(C)(=O)=O)cc2)cn1 [Etoricoxib, etoricoxib]
- IC50 [5, 10]: 11 ± 1.65 µg/mL (≈ 30.6 µM)

- Nitric oxide scavenging IC50 [6]: 3.91 ± 0.80 µg/mL
- Hydroxyl radical scavenging IC50 [1]: 4.75 ± 0.43 µg/mL
- Ferric reducing IC50 [7]: 2.47 ± 0.40 µg/mL
- Ferrous ion chelating IC50 [2]: 3.68 ± 0.59 µg/mL
- H2O2 scavenging IC50 [3]: 3.31 ± 0.58 µg/mL
- DPPH scavenging IC50 [4]: 4.54 ± 0.98 µg/mL
- Total antioxidant activity IC50 [9]: 2.87 ± 0.10 µg/mL
SMILES: O=C1O[C@H]([C@@H](O)CO)C(O)=C1O [Ascorbic acid]
